In PubChem BioAssay AID1919013 (Molecular Pharmacology Branch, DTP, NCI, 2023):
“And” between values parts separate entries of the source, which are not always exact repeats. Identical values can stand only once.

Tested on: LG0703-F498-PDC complex spheroid growth
Experiment: Anticancer human tumor LG0703-F498-PDC patient-derived lung adenocarcinoma cell line growth inhibition [AhR]
Details: for viability, T/C: stronger effect = lower value; active means viability on the fitted dose curve at most 10% of control; inactive means the rest
How it was run: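 Complex tumor spheroids co-cultured with HUVEC and human MSC stroma; AhR antagonists tested in combination with standard-of-care and investigational agents. Top concentration at or near clinical Cmax (else 10 microM), half-log dilutions; growth expressed as percent test/control.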

[1] = curve of first compound, second compound 0.1 µM
[2] = curve of first compound, second compound 0.316 µM
[3] = curve of first compound, second compound 1 µM
[4] = curve of first compound, second compound 3.16 µM
[5] = curve of first compound, second compound 10 µM
[6] = second compound 0.1 µM, first compound 0.0316 µM
[7] = second compound 0.1 µM, first compound 0.1 µM
[8] = second compound 0.1 µM, first compound 0.316 µM
[9] = second compound 0.1 µM, first compound 1 µM
[10] = second compound 0.1 µM, first compound 3.16 µM
[11] = second compound 0.1 µM, first compound 10 µM
[12] = second compound 0.316 µM, first compound 0.0316 µM
[13] = second compound 0.316 µM, first compound 0.1 µM
[14] = second compound 0.316 µM, first compound 0.316 µM
[15] = second compound 0.316 µM, first compound 1 µM
[16] = second compound 0.316 µM, first compound 3.16 µM
[17] = second compound 0.316 µM, first compound 10 µM
[18] = second compound 1 µM, first compound 0.0316 µM
[19] = second compound 1 µM, first compound 0.1 µM
[20] = second compound 1 µM, first compound 0.316 µM
[21] = second compound 1 µM, first compound 1 µM
[22] = second compound 1 µM, first compound 3.16 µM
[23] = second compound 1 µM, first compound 10 µM
[24] = second compound 3.16 µM, first compound 0.0316 µM
[25] = second compound 3.16 µM, first compound 0.1 µM
[26] = second compound 3.16 µM, first compound 0.316 µM
[27] = second compound 3.16 µM, first compound 1 µM
[28] = second compound 3.16 µM, first compound 3.16 µM
[29] = second compound 3.16 µM, first compound 10 µM
[30] = second compound 10 µM, first compound 0.0316 µM
[31] = second compound 10 µM, first compound 0.1 µM
[32] = second compound 10 µM, first compound 0.316 µM
[33] = second compound 10 µM, first compound 1 µM
[34] = second compound 10 µM, first compound 3.16 µM
[35] = second compound 10 µM, first compound 10 µM
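Further: luminescence taken as a proxy for viable cell amount.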
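Wherever viability, T/C is given: percent of DMSO vehicle control where 100% means growth equal to vehicle.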

CC(C)c1c(-c2ccccc2)nc2c(C#N)c[nH]n2c1=O + Cc1cncc(-c2nc(NCCc3c[nH]c4ccccc34)c3ncn(C(C)C)c3n2)c1
active: viability, T/C [30] 1.38% | viability, T/C [31] 1.01% | viability, T/C [32] 1.64% | viability, T/C [33] 2.22% | viability, T/C [34] 0.57% | viability, T/C [35] 1.89%
> 10000 nM: IC50 [1] | IC50 [2] | IC50 [3]
< 31.6 nM: IC50 [4] | IC50 [5]
inactive: viability, T/C [6] 108% | viability, T/C [7] 101% | viability, T/C [8] 87.2% | viability, T/C [9] 101% | viability, T/C [10] 89.1% | viability, T/C [11] 81.6% | viability, T/C [12] 97.3% | viability, T/C [13] 93.4% | viability, T/C [14] 96.5% | viability, T/C [15] 95.8% | viability, T/C [16] 103% | viability, T/C [17] 79.5% | viability, T/C [18] 106% | viability, T/C [19] 119% | viability, T/C [20] 101% | viability, T/C [21] 91.6% | viability, T/C [22] 91.9% | viability, T/C [23] 89.6% | viability, T/C [24] 39.1% | viability, T/C [25] 40% | viability, T/C [26] 36.9% | viability, T/C [27] 31.7% | viability, T/C [28] 29.9% | viability, T/C [29] 33%

Nc1ncn(C2CC(O)C(CO)S2)c(=O)n1 (configuration not stated) + Cc1ccccc1N=Nc1ccc(NC(=O)c2ccnn2C)c(C)c1
> 300 nM: IC50 [1] | IC50 [2] | IC50 [3] | IC50 [4] | IC50 [5]
inactive: viability, T/C (second compound 0.1 µM, first compound 0.000949 µM) 103% | viability, T/C (second compound 0.1 µM, first compound 0.003 µM) 105% | viability, T/C (second compound 0.1 µM, first compound 0.00949 µM) 94.5% | viability, T/C (second compound 0.1 µM, first compound 0.03 µM) 91.5% | viability, T/C (second compound 0.1 µM, first compound 0.0949 µM) 94.8% | viability, T/C (second compound 0.1 µM, first compound 0.3 µM) 97.2% | viability, T/C (second compound 0.316 µM, first compound 0.000949 µM) 102% | viability, T/C (second compound 0.316 µM, first compound 0.003 µM) 93.9% | viability, T/C (second compound 0.316 µM, first compound 0.00949 µM) 92.7% | viability, T/C (second compound 0.316 µM, first compound 0.03 µM) 93.9% | viability, T/C (second compound 0.316 µM, first compound 0.0949 µM) 101% | viability, T/C (second compound 0.316 µM, first compound 0.3 µM) 111% | viability, T/C (second compound 1 µM, first compound 0.000949 µM) 99.3% | viability, T/C (second compound 1 µM, first compound 0.003 µM) 89.3% | viability, T/C (second compound 1 µM, first compound 0.00949 µM) 80.5% | viability, T/C (second compound 1 µM, first compound 0.03 µM) 98.7% | viability, T/C (second compound 1 µM, first compound 0.0949 µM) 88% | viability, T/C (second compound 1 µM, first compound 0.3 µM) 82.5% | viability, T/C (second compound 3.16 µM, first compound 0.000949 µM) 82.5% | viability, T/C (second compound 3.16 µM, first compound 0.003 µM) 85.7% | viability, T/C (second compound 3.16 µM, first compound 0.00949 µM) 86.6% | viability, T/C (second compound 3.16 µM, first compound 0.03 µM) 76.1% | viability, T/C (second compound 3.16 µM, first compound 0.0949 µM) 78.6% | viability, T/C (second compound 3.16 µM, first compound 0.3 µM) 103% | viability, T/C (second compound 10 µM, first compound 0.000949 µM) 87% | viability, T/C (second compound 10 µM, first compound 0.003 µM) 86.8% | viability, T/C (second compound 10 µM, first compound 0.00949 µM) 99% | viability, T/C (second compound 10 µM, first compound 0.03 µM) 77.4% | viability, T/C (second compound 10 µM, first compound 0.0949 µM) 85% | viability, T/C (second compound 10 µM, first compound 0.3 µM) 96.9%

COc1cc(C2c3cc4c(cc3C(OC3OC5COC(C)OC5C(O)C3O)C3COC(=O)C23)OCO4)cc(OC)c1O (configuration not stated)
> 10000 nM: IC50 (curve of compound)
inactive: viability, T/C (compound 0.0316 µM) 95.8% and 105% and 103% | viability, T/C (compound 0.1 µM) 109% and 113% and 98.3% | viability, T/C (compound 0.316 µM) 99.8% and 102% and 96.6% | viability, T/C (compound 1 µM) 86.4% and 106% and 110% | viability, T/C (compound 3.16 µM) 80.5% and 96.5% and 87.8% | viability, T/C (compound 10 µM) 64.3% and 75.6% and 70.2%

COc1cccc2c1C(=O)c1c(O)c3c(c(O)c1C2=O)CC(O)(C(=O)CO)CC3OC1CC(N)C(O)C(C)O1 (configuration not stated) + Cc1cncc(-c2nc(NCCc3c[nH]c4ccccc34)c3ncn(C(C)C)c3n2)c1
active: viability, T/C [10] 5.61% | viability, T/C [11] 0.77% | viability, T/C [16] 3.48% | viability, T/C [17] 0.76% | viability, T/C [22] 1.11% | viability, T/C [23] 0.75% | viability, T/C [28] 0.78% | viability, T/C [29] 0.47% | viability, T/C [30] 2.11% | viability, T/C [31] 2.97% | viability, T/C [32] 4.27% | viability, T/C [33] 0.39% | viability, T/C [34] 0.31% | viability, T/C [35] 0.58%
394 nM: IC50 [3]
inactive: viability, T/C [6] 76.6% | viability, T/C [7] 74.6% | viability, T/C [8] 64% | viability, T/C [9] 36.8% | viability, T/C [12] 79% | viability, T/C [13] 77.8% | viability, T/C [14] 58.3% | viability, T/C [15] 29.8% | viability, T/C [18] 84.2% | viability, T/C [19] 79.9% | viability, T/C [20] 53.7% | viability, T/C [21] 27.1% | viability, T/C [24] 41.6% | viability, T/C [25] 44.3% | viability, T/C [26] 39.5% | viability, T/C [27] 15.8%
< 31.6 nM: IC50 [4] | IC50 [5]
571 nM: IC50 [1]
454 nM: IC50 [2]

Cn1ncnc1C1c2n[nH]c(=O)c3cc(F)cc(c23)NC1c1ccc(F)cc1 (configuration not stated) + Cc1cncc(-c2nc(NCCc3c[nH]c4ccccc34)c3ncn(C(C)C)c3n2)c1
< 0.316 nM: IC50 [4] | IC50 [5]
inactive: viability, T/C (second compound 0.1 µM, first compound 0.000316 µM) 101% | viability, T/C (second compound 0.1 µM, first compound 0.001 µM) 93.3% | viability, T/C (second compound 0.1 µM, first compound 0.00316 µM) 93.2% | viability, T/C (second compound 0.1 µM, first compound 0.01 µM) 93.8% | viability, T/C [6] 91.3% | viability, T/C [7] 82.6% | viability, T/C (second compound 0.316 µM, first compound 0.000316 µM) 94.6% | viability, T/C (second compound 0.316 µM, first compound 0.001 µM) 108% | viability, T/C (second compound 0.316 µM, first compound 0.00316 µM) 98.4% | viability, T/C (second compound 0.316 µM, first compound 0.01 µM) 98.5% | viability, T/C [12] 104% | viability, T/C [13] 89.1% | viability, T/C (second compound 1 µM, first compound 0.000316 µM) 103% | viability, T/C (second compound 1 µM, first compound 0.001 µM) 116% | viability, T/C (second compound 1 µM, first compound 0.00316 µM) 100% | viability, T/C (second compound 1 µM, first compound 0.01 µM) 106% | viability, T/C [18] 109% | viability, T/C [19] 95.7% | viability, T/C (second compound 3.16 µM, first compound 0.000316 µM) 49.3% | viability, T/C (second compound 3.16 µM, first compound 0.001 µM) 47% | viability, T/C (second compound 3.16 µM, first compound 0.00316 µM) 58.2% | viability, T/C (second compound 3.16 µM, first compound 0.01 µM) 42.4% | viability, T/C [24] 48% | viability, T/C [25] 54%
active: viability, T/C (second compound 10 µM, first compound 0.000316 µM) 1.14% | viability, T/C (second compound 10 µM, first compound 0.001 µM) 1.01% | viability, T/C (second compound 10 µM, first compound 0.00316 µM) 1.11% | viability, T/C (second compound 10 µM, first compound 0.01 µM) 1.03% | viability, T/C [30] 1.15% | viability, T/C [31] 1.54%
> 100 nM: IC50 [1] | IC50 [2] | IC50 [3]

COc1ccc([C@@H](O)c2cc(-c3ncnc4cc(N5CCOCC5)ccc34)c(F)cc2Cl)nn1 + Cc1ccccc1N=Nc1ccc(NC(=O)c2ccnn2C)c(C)c1
inactive: viability, T/C [6] 93.9% | viability, T/C [7] 93.8% | viability, T/C [8] 88.3% | viability, T/C [9] 75.7% | viability, T/C [10] 61.2% | viability, T/C [11] 29% | viability, T/C [12] 83.3% | viability, T/C [13] 101% | viability, T/C [14] 91.1% | viability, T/C [15] 75% | viability, T/C [16] 48.5% | viability, T/C [17] 28.1% | viability, T/C [18] 87.3% | viability, T/C [19] 99.2% | viability, T/C [20] 86% | viability, T/C [21] 79% | viability, T/C [22] 55% | viability, T/C [23] 28.5% | viability, T/C [24] 89.8% | viability, T/C [25] 83.9% | viability, T/C [26] 78% | viability, T/C [27] 68.1% | viability, T/C [28] 45.2% | viability, T/C [29] 23.8% | viability, T/C [30] 75.5% | viability, T/C [31] 93.6% | viability, T/C [32] 80.8% | viability, T/C [33] 57.9% | viability, T/C [34] 42.5% | viability, T/C [35] 15.6%
2870 nM: IC50 [2]
2550 nM: IC50 [4]
4590 nM: IC50 [1]
1900 nM: IC50 [5]
3920 nM: IC50 [3]
